Structures can show the parent of a compound that is named as a salt.

For `COC(=O)c1ccc(F)c2c1C[C@H](NCCCCc1c[nH]c3ccc(F)cc13)CO2` (as salt: hydrochloride) [Compound 57a, Methyl (3S)-8-fluoro-3-{[4-(5-fluoro-1H-indol-3-yl)butyl]amino}chromane-5-carboxylate], the melting point is 240 °C (dec.). Take `COc1cccc2c(CCN(C3CCC3)C3COc4c(F)ccc(C(N)=O)c4C3)coc12` (stereo not drawn) (as salt: hydrochloride) [Compound 159, 3-{cyclobutyl[2-(7-methoxy-1-benzofuran-3-yl)ethyl]amino}-8-fluorochromane-5-carboxamide]: the melting point is 135 to 145 °C (dec.). For `COc1cccc2c1CC(N[C@H]1CC[C@@H](c3c[nH]c4ccc(F)cc43)CC1)CO2` (relative stereo) (as salt: hydrochloride) [Compound 181a, cis-N-[4-(5-fluoro-1H-indol-3-yl)cyclohexyl]-5-methoxychroman-3-amine], the melting point is 156.5 °C (dec.).

`NC(=O)c1ccc(F)c2c1CC(NCCCn1ccc3ccccc31)CO2` (stereo not drawn) (as salt: hydrochloride) [Compound 184, 8-Fluoro-3-{[3-(1H-indol-1-yl)propyl]amino}chromane-5-carboxamide] gave a melting point of 155 to 156 °C. In the case of `CCCN(CCCc1c[nH]c2c(OC)cccc12)C1COc2c(F)ccc(C(N)=O)c2C1` (stereo not drawn) (as salt: hydrochloride) [Compound 100, 8-fluoro-3-[[3-(7-methoxy-1H-indol-3-yl)propyl](propyl)amino]chromane-5-carboxamide] it was 158 to 164 °C (dec.); in that of `COC(=O)c1ccc(F)c2c1CC(N(CCCCc1c[nH]c3ccc(F)cc13)C1CCC1)CO2` (stereo not drawn) (as salt: hydrochloride) [Compound 58, Methyl 3-{cyclobutyl[4-(5-fluoro-1H-indol-3-yl)butyl]amino}-8-fluorochromane-5-carboxylate], 115 °C (dec.). For the compound `NC(=O)c1ccc(F)c2c1CC(N(CCCc1c[nH]c3ccc(F)cc13)Cc1ccccc1)CO2` (stereo not drawn) (as salt: hydrochloride) [Compound 74, 3-{benzyl[3-(5-fluoro-1H-indol-3-yl)propyl]amino}-8-fluorochromane-5-carboxamide], the melting point was 142 to 150 °C (dec.).

Turning to `N#Cc1ccc2[nH]cc(CCCN(CC3CC3)[C@H]3COc4c(F)ccc(C(N)=O)c4C3)c2c1` (as salt: hydrochloride) [Compound 98b, (3R)-3-[[3-(5-cyano-1H-indol-3-yl)propyl](cyclopropylmethyl)amino]-8-fluorochromane-5-carboxamide], the melting point is 160 to 167 °C (dec.). As for `O=C(NC1CCC1)c1ccc(F)c2c1CC(N(CCCc1c[nH]c3ccc(F)cc13)C1CCC1)CO2` (stereo not drawn) (as salt: hydrochloride) [Compound 65, N-cyclobutyl-3-{cyclobutyl[3-(5-fluoro-1H-indol-3-yl)propyl]amino}-8-fluorochromane-5-carboxamide], the figure is 135 °C (dec.); as for `CCN(CCc1c[nH]c2ccc(F)cc12)C1CCc2cccc(OC)c2C1` (stereo not drawn) (as salt: hydrochloride) [Compound 49, N-ethyl-N-[2-(5-fluoro-1H-indol-3-yl)ethyl]-N-(8-methoxy-1,2,3,4-tetrahydronaphthalen-2-yl)amine], 114 °C (dec.). With `COc1cccc2c1CC(N(CCCc1c[nH]c3ccc(F)cc13)CC1CCC1)CO2` (stereo not drawn) (as salt: hydrochloride) [Compound 42, N-(cyclobutylmethyl)-N-[3-(5-fluoro-1H-indol-3-yl)propyl]-N-(5-methoxy-3,4-dihydro-2H-chromen-3-yl)amine], the melting point was 115 °C (dec.). As for `COc1cccc2c1CC(N(CCCc1c[nH]c3ccc(F)cc13)C1CCCC1)CO2` (stereo not drawn) (as salt: hydrochloride) [Compound 39, N-cyclopentyl-N-[3-(5-fluoro-1H-indol-3-yl)propyl]-N-(5-methoxy-3,4-dihydro-2H-chromen-3-yl)amine], the figure is 112 °C (dec.). In the case of `CCN(C(C)CCc1c[nH]c2ccc(F)cc12)C1COc2c(F)ccc(C(N)=O)c2C1` (single isomer, unassigned; (-)) (as salt: hydrochloride) [Compound 16a, (−)-3-{ethyl[3-(5-fluoro-1H-indol-3-yl)-1-methylpropyl]amino}-8-fluorochromane-5-carboxamide], the melting point was 132 °C (dec.). Regarding `CCCN(CCCc1csc2ccc(F)cc12)C1COc2cccc(OC)c2C1` (stereo not drawn) (as salt: hydrochloride) [Compound 19, N-[3-(5-fluoro-1-benzothien-3-yl)propyl]-5-methoxy-N-propylchroman-3-amine], the melting point was 78 °C (dec.). On to `CCCCNC(=O)c1ccc(F)c2c1CC(N(CCCc1c[nH]c3ccc(F)cc13)C1CCC1)CO2` (stereo not drawn) (as salt: hydrochloride) [Compound 62, N-butyl-3-{cyclobutyl[3-(5-fluoro-1H-indol-3-yl)propyl]amino}-8-fluorochromane-5-carboxamide], for which the melting point was 106 °C (dec.). In the case of `COc1cccc2c(CCN(CC3CC3)C3COc4c(F)ccc(C(N)=O)c4C3)coc12` (stereo not drawn) (as salt: hydrochloride) [Compound 160, 3-{(cyclopropylmethyl)[2-(7-methoxy-1-benzofuran-3-yl)ethyl]amino}-8-fluorochromane-5-carboxamide] it was 130 to 138 °C (dec.); in that of `C[C@H](CCN(C1CCC1)[C@H]1COc2c(F)ccc(C(N)=O)c2C1)c1c[nH]c2ccc(F)cc12` (as salt: hydrochloride) [Compound 152a, (3R)-3-{cyclobutyl[(3R)-3-(5-fluoro-1H-indol-3-yl)butyl]amino}-8-fluorochromane-5-carboxamide], 168 to 174 °C (dec.); in that of `CCCN(CCCc1c[nH]c2c(Cl)cccc12)C1COc2c(F)ccc(C(N)=O)c2C1` (stereo not drawn) (as salt: hydrochloride) [Compound 113, 3-[[3-(7-chloro-1H-indol-3-yl)propyl](propyl)amino]-8-fluorochromane-5-carboxamide], 145 to 154 °C (dec.). As for `CCCN(CCc1coc2c(OC)cccc12)C1COc2c(F)ccc(C(N)=O)c2C1` (stereo not drawn) (as salt: hydrochloride) [Compound 158, 8-fluoro-3-[[2-(7-methoxy-1-benzofuran-3-yl)ethyl](propyl)amino]chromane-5-carboxamide], the figure is 125 to 132 °C; as for `CCN(CCCc1c[nH]c2c(Cl)cccc12)C1COc2c(F)ccc(C(N)=O)c2C1` (stereo not drawn) (as salt: hydrochloride) [Compound 110, 3-[[3-(7-chloro-1H-indol-3-yl)propyl](ethyl)amino]-8-fluorochromane-5-carboxamide], 146 to 152 °C (dec.); as for `CCCN(CCCc1c[nH]c2ccc(F)cc12)C1COc2c(F)ccc(C(N)=O)c2C1` (single isomer, unassigned; (-)) (as salt: hydrochloride) [Compound 2a, (−)-8-fluoro-3-[[3-(5-fluoro-1H-indol-3-yl)propyl](propyl)amino]-3,4-dihydro-2H-chromene-5-carboxamide], 126 °C (dec.).

For `NC(=O)c1ccc(F)c2c1CC(N(CCCc1c[nH]c3cc(F)ccc13)CC1CC1)CO2` (stereo not drawn) (as salt: hydrochloride) [Compound 52a, 3-{(cyclopropylmethyl)[3-(6-fluoro-1H-indol-3-yl)propyl]amino}-8-fluorochromane-5-carboxamide], the melting point is 123 °C (dec.).

Take `NC(=O)c1ccc(F)c2c1OCC(NCCCCc1c[nH]c3ccc(F)cc13)C2` (stereo not drawn) (as salt: hydrochloride) [Compound 123, 5-fluoro-3-{[4-(5-fluoro-1H-indol-3-yl)butyl]amino}chromane-8-carboxamide]: the melting point was 119 °C (dec.). In the case of `CCCN(CCCc1c[nH]c2ccc(Cl)cc12)C1COc2c(F)ccc(C(N)=O)c2C1` (stereo not drawn) (as salt: hydrochloride) [Compound 116, 3-[[3-(5-chloro-1H-indol-3-yl)propyl](propyl)amino]-8-fluorochromane-5-carboxamide] it was 148 to 154 °C (dec.); in that of `CCCN(C1COc2cccc(OC)c2C1)[C@H]1CC[C@@H](c2c[nH]c3ccc(F)cc32)CC1` (relative stereo) (as salt: hydrochloride) [Compound 182, cis-N-[4-(5-fluoro-1H-indol-3-yl)cyclohexyl]-5-methoxy-N-propylchroman-3-amine], 148 °C (dec.); in that of `CCN(C(C)CCc1c[nH]c2ccc(F)cc12)C1COc2c(F)ccc(C(N)=O)c2C1` (single isomer, unassigned; (+)) (as salt: hydrochloride) [Compound 16b, (+)-3-{ethyl[3-(5-fluoro-1H-indol-3-yl)-1-methylpropyl]amino}-8-fluorochromane-5-carboxamide], 135 °C (dec.). In the case of `COc1cccc2c1CC(N(CCCc1c[nH]c3ccc(F)cc13)C1CCC1)CO2` (stereo not drawn) (as salt: hydrochloride) [Compound 34, N-cyclobutyl-N-[3-(5-fluoro-1H-indol-3-yl)propyl]-5-methoxychroman-3-amine] it was 70.5 °C (dec.); in that of `CCN(CCc1coc2c(OC)cccc12)C1COc2c(F)ccc(C(N)=O)c2C1` (stereo not drawn) (as salt: hydrochloride) [Compound 157, 3-{ethyl[2-(7-methoxy-1-benzofuran-3-yl)ethyl]amino}-8-fluorochromane-5-carboxamide], 124 to 132 °C; in that of `NC(=O)c1ccc(F)c2c1C[C@@H](N(CCCCc1c[nH]c3ccc(F)cc13)C1CCC1)CO2` (as salt: hydrochloride) [Compound 83a, (3R)-3-{cyclobutyl[4-(5-fluoro-1H-indol-3-yl)butyl]amino}-8-fluorochromane-5-carboxamide], 128 °C (dec.). As for `COC(=O)c1ccc(F)c2c1C[C@@H](NCCCCc1c[nH]c3ccc(F)cc13)CO2` (as salt: hydrochloride) [Compound 57b, methyl (3R)-8-fluoro-3-{[4-(5-fluoro-1H-indol-3-yl)butyl]amino}chromane-5-carboxylate], the figure is 240 °C (dec.).

As a reminder, the melting point is the temperature of the solid-liquid transition.

(Values after patent US20050032873A1, “3-Amino chroman and 2-amino tetralin derivatives” (Wyeth, priority 2003, published 2005).)
